From patent US20190255048A1, “PYRIMIDINE COMPOUND OR SALT THEREOF IN APPLICATION FOR MANUFACTURING PHARMACEUTICAL PRODUCT FOR PREVENTING AND/OR TREATING FLT3-RELATED DISEASE OR DISORDER” (SHENZHEN HAIBIN PHARMACEUTICAL CO., LTD, priority 2016, published 2019)

What was measured:
[1] = tested on: mouse TEL-FLT3-BaF3 (stably expressing FLT3 kinase); experiment: Effects on proliferation of cells (Cell Titer-Glo), TEL-FLT3-BaF3; type: cell-based; details: TEL-FLT3-BaF3, incubated for 72 hours
Excerpt: (§1) This example tested the effects of the compounds of the present invention (the compound shown in Formula (I), hydrochloride salt, phosphate, mesylate, lactate, acetate, sulphate, and hydrobromide thereof prepared in EXAMPLES 1-8 respectively) on proliferation of tumor cells, and further evaluated the inhibitory effects of the compounds on proliferation of tumor cells and selectivity of the compounds in inhibiting proliferation of tumor cells.
(8) mouse TEL-FLT3-BaF3 (stably expressing FLT3 kinase);
(§2) The compounds at different concentration (0.000508 μM, 0.00152 μM, 0.00457 μM, 0.0137 μM, 0.0411 μM, 0.123 μM, 0.370 μM, 1.11 μM, 3.33 μM, 10 μM in DMSO) were added to the above-mentioned cells respectively, incubated for 72 hours, Cell Titer-Glo (Promega, United States of America) Chemiluminescence Kit was used to quantify ATP in living cells to detect the number of living cells, the results were shown as Table 3

[2] = tested on: human acute myeloid leukemia cell strain U937 (expressing wild-type FLT3 gene); experiment: Effects on proliferation of tumor cells (Cell Titer-Glo), U937; type: cell-based
Excerpt: as §1
(5) human acute myeloid leukemia cell strain U937 (expressing wild-type FLT3 gene);
as §2

[3] = tested on: mouse TEL-BaF3-FLT3/ITD (stably expressing FLT3/ITD mutant activated kinase); experiment: Effects on proliferation of cells (Cell Titer-Glo), TEL-BaF3-FLT3/ITD; type: cell-based; details: incubated for 72 hours
Excerpt: as §1
(6) mouse TEL-BaF3-FLT3/ITD (stably expressing FLT3/ITD mutant activated kinase);
as §2

[4] = biological target: T1, FLT3 kinase (Homo sapiens, UniProt P36888); experiment: Activity of inhibiting FLT3 kinase (fluorescein labeled peptide kinase assay); type: biochemical; details: in vitro kinase assay, 28° C.
T1 sequence (P36888 27-993): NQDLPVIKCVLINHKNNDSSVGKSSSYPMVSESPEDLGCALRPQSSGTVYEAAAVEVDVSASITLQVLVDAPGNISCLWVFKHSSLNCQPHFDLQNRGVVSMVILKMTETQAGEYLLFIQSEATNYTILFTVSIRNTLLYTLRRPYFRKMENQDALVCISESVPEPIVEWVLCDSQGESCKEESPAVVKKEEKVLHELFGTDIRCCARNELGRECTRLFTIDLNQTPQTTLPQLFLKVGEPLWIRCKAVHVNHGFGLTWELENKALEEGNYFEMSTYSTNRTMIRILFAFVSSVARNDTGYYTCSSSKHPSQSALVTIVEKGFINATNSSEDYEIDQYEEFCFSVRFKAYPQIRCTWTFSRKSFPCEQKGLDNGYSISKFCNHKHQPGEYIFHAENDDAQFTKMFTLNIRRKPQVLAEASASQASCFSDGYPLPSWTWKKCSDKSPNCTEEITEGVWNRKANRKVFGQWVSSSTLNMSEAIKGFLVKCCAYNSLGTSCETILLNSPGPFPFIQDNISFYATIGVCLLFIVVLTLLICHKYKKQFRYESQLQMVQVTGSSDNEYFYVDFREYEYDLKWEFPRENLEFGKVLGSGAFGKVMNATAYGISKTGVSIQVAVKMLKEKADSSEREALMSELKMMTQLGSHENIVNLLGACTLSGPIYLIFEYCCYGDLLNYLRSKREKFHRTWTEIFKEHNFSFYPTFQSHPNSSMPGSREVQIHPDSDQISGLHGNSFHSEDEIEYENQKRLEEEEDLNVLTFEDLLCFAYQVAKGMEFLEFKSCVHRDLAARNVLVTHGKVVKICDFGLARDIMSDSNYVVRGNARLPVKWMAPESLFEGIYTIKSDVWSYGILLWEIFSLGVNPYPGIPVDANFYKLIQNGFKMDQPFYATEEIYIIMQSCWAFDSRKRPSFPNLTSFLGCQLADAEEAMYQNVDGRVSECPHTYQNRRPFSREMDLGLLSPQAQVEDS
Protocol: Activity of Inhibiting FLT3 Kinase
1. Preparation of 1 × Kinase Buffer and Termination Buffer:
(1) MnCl2-free 1× kinase buffer: 50 mM HEPES, pH 7.5, 0.0015% Brij-35, 10 mM MgCl2, 2 mM DTT;
(2) Termination buffer: 100 mM HEPES, pH 7.5, 0.015% Brij-35, 0.2% Coating Reagent #3, 50 mM EDTA.
2. Preparation of compounds for testing kinase: the compounds are diluted continuously.
(1) the compound was diluted to 50 times the maximum final concentration with 100% DMSO. […] of the solution containing the compound at this concentration was transferred to one hole of 96-well plate;
(2)10 concentrations of compounds were prepared by diluting 20 mL original solution with 60 mL DMSO;
(3) […] solution of 100% DMSO was added into two empty holes as compound-free control and enzyme-free control; (4) a transitional plate was prepared, 10 mL compounds at different concentrations were transferred from the original plate to the transitional plate respectively, 90 mL 1× kinase buffer was added, and then mixed under oscillation for 10 minutes;
(5) preparation of an experimental plate: 5 mL solution containing compounds was transferred from the hole of the transitional plate of the 96-well plate to the corresponding hole of 384-well plate.
(1) Preparation of 2.5× enzyme solution: enzyme was added to the 1× kinase buffer;
(2) Preparation of 2.5× peptide solution: a fluorescein labeled peptide and ATP were added to the 1× kinase buffer;
(3) 10 mL 2.5× enzyme solution was added to an experimental 384-well plate containing the compound solution with a concentration of 10% containing 5 mL DMSO and incubated at room temperature for 10 minutes;
(4) 10 mL 2.5× peptide solution was added to an experimental 384-well plate;
(5) kinase reaction and termination: Incubation was carried out at 28° C. for certain time, 25 mL termination buffer was added to terminate the reaction.
Data was read and collected.
(1) detected data was copied and converted
(2) data was converted to inhibitory rate
Inhibitory rate=(Maximum Value−Sample Value)/(Maximum Value−Minimum Value)*100;
wherein “Maximum Value” is the value of DMSO control; “Minimum Value” is the value of kinase-free control hole.
(3) the data was input an analysis software to obtain IC50 value.

[5] = tested on: mouse TEL-BaF3-FLT3-D835Y (stably expressing FLT3D835Y mutant activated kinase); experiment: Effects on proliferation of cells (Cell Titer-Glo), TEL-BaF3-FLT3-D835Y; type: cell-based; details: incubated for 72 hours
Excerpt: as §1
(7) mouse TEL-BaF3-FLT3-D835Y (stably expressing FLT3D835Y mutant activated kinase);
as §2

[6] = tested on: mouse BaF3-FLT3-ITD-D835Y (stably expressing FLT3/ITD D835Y mutant activated kinase); experiment: Effects on proliferation of cells (Cell Titer-Glo), BaF3-FLT3-ITD-D835Y; type: cell-based; details: incubated for 72 hours
Excerpt: as §1
(9) mouse BaF3-FLT3-ITD-D835Y (stably expressing FLT3/ITD D835Y mutant activated kinase);
as §2

[7] = tested on: human acute monocytic leukemia cell strain MV4-11 (expressing FLT3/ITD mutant gene); experiment: Effects on proliferation of tumor cells (Cell Titer-Glo), MV4-11; type: cell-based; details: MV4-11, incubated for 72 hours
Excerpt: as §1
(1) human acute monocytic leukemia cell strain MV4-11 (expressing FLT3/ITD mutant gene);
as §2

[8] = tested on: human acute myeloid leukemia cell strain MOLM-14 (expressing FLT3/ITD mutant gene and wild-type FLT3 gene); experiment: Effects on proliferation of tumor cells (Cell Titer-Glo), MOLM-14; type: cell-based; details: MOLM-14, incubated for 72 hours
Excerpt: as §1
(3) human acute myeloid leukemia cell strain MOLM-14 (expressing FLT3/ITD mutant gene and wild-type FLT3 gene);
as §2

[9] = tested on: human acute myeloid leukemia cell strain MOLM-13 (expressing FLT3/ITD mutant gene and wild-type FLT3 gene); experiment: Effects on proliferation of tumor cells (Cell Titer-Glo), MOLM-13; type: cell-based; details: MOLM-13, incubated for 72 hours
Excerpt: as §1
(2) human acute myeloid leukemia cell strain MOLM-13 (expressing FLT3/ITD mutant gene and wild-type FLT3 gene);
as §2

[10] = tested on: subcutaneous xenograft tumor of human MV-4-11; experiment: Therapeutic effects on subcutaneous xenograft tumor of human MV-4-11 in nude mice; type: in vivo, BALB/cA-nude mice; details: MV-4-11 subcutaneous xenograft, 15 mg/kg intraperitoneal injection, 3 times a day for 21 days
Protocol: Preparation of test samples: all samples were prepared with 5% anhydrous ethanol, 5% Cremophor EL and 90% physiological saline.
Animals: BALB/cA-nude mice, 6-7 weeks, female ♀ purchased from Shanghai Lingchang Biotechnology Co., Ltd. Production license number was SC×K(Hu)2013-0018; animal certification number was 2013001810589.
Feeding environment: SPF Level.
Experiment steps: human acute myeloid leukemia cells MV-4-11 were inoculated subcutaneously in nude mice, after the tumor grows to 80-150 mm^3, animals were randomly divided into groups with 6 mice each group. The dosage was 15 mg/kg, the drugs were administrated by intraperitoneal injection, 3 times a day for 21 days. The volume of tumor was measured, the weight of mouse was weighed and the data were recorded.
The formula for calculating the volume of tumor (V) was: […]
Wherein a and b represented length and width respectively.
T/C (%)=(T−T0)/(C−C0)×100
Wherein T and C were the volume of tumor when the experiment was completed; T0 and C0 were the volume of tumor when the experiment was started.
The inhibited rate of tumor was calculated, the results were shown as Table 4.

[11] = tested on: human acute myeloid leukemia cell strain OCI-AML-3 (expressing FLT3A680V mutant gene); experiment: Effects on proliferation of tumor cells (Cell Titer-Glo), OCI-AML-3; type: cell-based; details: OCI-AML-3, incubated for 72 hours
Excerpt: as §1
(4) human acute myeloid leukemia cell strain OCI-AML-3 (expressing FLT3A680V mutant gene);
as §2

[12] = tested on: mouse BaF3-FLT3-ITD-F691L (stably expressing FLT3/ITD F691L mutant activated kinase); experiment: Effects on proliferation of cells (Cell Titer-Glo), BaF3-FLT3-ITD-F691L; type: cell-based; details: incubated for 72 hours
Excerpt: as §1
(10) mouse BaF3-FLT3-ITD-F691L (stably expressing FLT3/ITD F691L mutant activated kinase).
as §2

Row | IC50 [1] [µM] | IC50 ([2]; U937, incubated for 72 hours) [µM] | IC50 [3] [µM] | IC50 [4] [nM] | IC50 [5] [µM] | IC50 [6] [µM] | IC50 [7] [µM] | IC50 [8] [µM] | IC50 [9] [µM] | IC50 [11] [µM] | IC50 [12] [µM] | Compound | Inhibited Rate of Tumor (%) [10] [%] | other results
1 | 0.03 | 2.09 | 0.02 | 27 | 0.32 | 0.53 | 0.41 | 0.12 | 0.43 | 0.32 | 0.94 | CC(=O)O.Nc1sc(-c2c(F)cccc2F)nc1C(=O)Nc1cncnc1OCC1CCNCC1 [Acetate of compound of Formula (I)] | 77 | –
2 | – | – | – | 40 | – | – | – | – | – | – | – | Nc1sc(-c2c(F)cccc2F)nc1C(=O)Nc1cncnc1OCC1CCNCC1 [Compound of Formula (I), 5-amino-2-(2,6-difluorophenyl)-N-(4-(piperidine-4-methoxy)pyrimidine-5-) thiazole-4-formamide] | 66 | IC50 ([1]; Mus musculus): 0.12 µM; IC50 ([2]; Homo sapiens, U-937, U937, incubated for 72 hours): ≥ 13.4 µM; IC50 ([3]; Mus musculus): 0.11 µM; IC50 ([5]; Mus musculus): 0.32 µM; IC50 ([6]; Mus musculus): 0.61 µM; IC50 ([7]; Homo sapiens): 0.51 µM; IC50 ([8]; Homo sapiens): 0.27 µM; IC50 ([9]; Homo sapiens): 0.52 µM; IC50 ([11]; Homo sapiens): 0.34 µM; IC50 ([12]; Mus musculus): 0.93 µM
3 | 0.16 | 4.66 | 0.02 | 39 | 0.31 | 0.66 | 0.42 | 0.13 | 0.51 | 0.11 | 0.76 | Br.Nc1sc(-c2c(F)cccc2F)nc1C(=O)Nc1cncnc1OCC1CCNCC1 [Hydrobromide of compound of Formula (I)] | 66 | –
4 | 0.03 | 6.21 | 0.02 | 15 | 0.21 | 0.32 | 0.13 | 0.08 | 0.12 | 0.05 | 0.45 | Cl.Nc1sc(-c2c(F)cccc2F)nc1C(=O)Nc1cncnc1OCC1CCNCC1 [Hydrochloride salt of compound of Formula (I)] | 86 | –
5 | 0.06 | 9.05 | 0.04 | 25 | 0.13 | 0.34 | 0.34 | 0.31 | 0.28 | 0.08 | 0.64 | CC(O)C(=O)O.Nc1sc(-c2c(F)cccc2F)nc1C(=O)Nc1cncnc1OCC1CCNCC1 [Lactate of compound of Formula (I)] | 71 | –
6 | 0.05 | 7.42 | 0.02 | 28 | 0.31 | 0.55 | 0.43 | 0.13 | 0.45 | 0.06 | 0.77 | CS(=O)(=O)O.Nc1sc(-c2c(F)cccc2F)nc1C(=O)Nc1cncnc1OCC1CCNCC1 [Mesylate of compound of Formula (I)] | 74 | –
7 | 0.05 | 3.56 | 0.04 | 28 | 0.22 | 0.23 | 0.23 | 0.22 | 0.23 | 0.21 | 0.56 | Nc1sc(-c2c(F)cccc2F)nc1C(=O)Nc1cncnc1OCC1CCNCC1.O=S(=O)(O)O [Sulphate of compound of Formula (I)] | 68 | –
